Data taken from PubChem BioAssay (NCI).
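A five-concentration, 48-hour dose response in 96-well plates underlies each endpoint, interpolated linearly between surrounding concentrations. Here, GI50 denotes the concentration required for 50% inhibition of growth. TGI: total growth inhibition.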

Tests used:
Assay in all cases: NCI tumour cell line growth inhibition, 48 h
DLD-1 colon = test system: DLD-1 colon
P388 leukemia = test system: P388 leukemia
SN12K1 renal = test system: SN12K1 renal
M19-MEL melanoma = test system: M19-MEL melanoma
SNB-78 CNS = test system: SNB-78 CNS
DMS 114 small cell lung = test system: DMS 114 small cell lung
DMS 273 small cell lung = test system: DMS 273 small cell lung
HOP-18 NSCLC = test system: HOP-18 NSCLC
LXFL 529 NSCLC = test system: LXFL 529 NSCLC

| Compound | GI50 (DLD-1 colon) [nM] | TGI (P388 leukemia) [µM] | GI50 (SN12K1 renal) [nM] | TGI (SN12K1 renal) [µM] | GI50 (M19-MEL melanoma) [µM] | GI50 (SNB-78 CNS) [nM] | TGI (DMS 114 small cell lung) [µM] | TGI (DMS 273 small cell lung) [µM] | TGI (HOP-18 NSCLC) [µM] | TGI (LXFL 529 NSCLC) [µM] | TGI (M19-MEL melanoma) [µM] | TGI (DLD-1 colon) [µM] | TGI (SNB-78 CNS) [µM] | GI50 (HOP-18 NSCLC) [µM] |
| --- | --- | --- | --- | --- | --- | --- | --- | --- | --- | --- | --- | --- | --- | --- |
| COc1cc([C@@H]2c3cc4c(c(O)c3C[C@H]3COC(=O)[C@@H]32)OCO4)cc(OC)c1OC | 0.0646 | 0.551 | 0.0526 | 0.000207 | 0.000137 | 0.011 | 1.5 | 1.5 | 61.9 |  |  |  |  |  |
| O=C1C(Cl)N(c2cccc(Cl)c2)C1c1c[nH]c2ccccc12 (centres undefined) |  |  |  |  |  |  | > 100 |  |  | > 100 | > 100 |  |  |  |
| Cc1nc2c(c(=O)[nH]1)S/C(=C(/C#N)c1nc3ccccc3[nH]1)N2c1ccccc1 |  |  |  |  |  |  | > 100 | > 100 |  | > 100 | > 100 | > 100 | > 100 |  |
| COc1ccc2c(c1O)-c1cc(O)cc3c1[C@@H](C2)N(C)CC3 |  | 106 |  | 122 |  |  |  | 127 |  |  | 128 | 121 | 212 |  |
| C=C(C)C(=O)O[C@H]1CC2=C[C@@H](C[C@@]3(C)O[C@@H]3[C@H]3OC(=O)C(=C)[C@@H]31)OC2=O |  | 15.6 |  | 12.1 |  | 1270 | 9.35 | 8.09 | 10.9 |  | 6.52 | 3.3 | 300 | 6.42 |
